Measured values published in PubChem BioAssay AID1918945 (Molecular Pharmacology Branch, DTP, NCI, 2023).

Test system: 883617-216-R-J1-PDC complex spheroid viability
Experiment: Anticancer human tumor 883617-216-R-J1-PDC patient-derived bladder carcinoma cell line growth inhibition
Conditions: for IC50: curve of first compound; for viability, T/C: stronger effect = lower value
Summary of the method: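 Complex spheroids of tumor cells with HUVEC and human MSCs, exposed to iadademstat combined with other agents. Each agent tested in half-log steps from near clinical Cmax (else 10 microM top), DMSO ≤0.25%.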

[1] = second compound 0.1 µM, first compound 0.00949 µM
[2] = second compound 0.1 µM, first compound 0.03 µM
[3] = second compound 0.1 µM, first compound 0.0949 µM
[4] = second compound 0.1 µM, first compound 0.3 µM
[5] = second compound 0.1 µM, first compound 0.949 µM
[6] = second compound 0.1 µM, first compound 3 µM
[7] = second compound 0.316 µM, first compound 0.00949 µM
[8] = second compound 0.316 µM, first compound 0.03 µM
[9] = second compound 0.316 µM, first compound 0.0949 µM
[10] = second compound 0.316 µM, first compound 0.3 µM
[11] = second compound 0.316 µM, first compound 0.949 µM
[12] = second compound 0.316 µM, first compound 3 µM
[13] = second compound 1 µM, first compound 0.00949 µM
[14] = second compound 1 µM, first compound 0.03 µM
[15] = second compound 1 µM, first compound 0.0949 µM
[16] = second compound 1 µM, first compound 0.3 µM
[17] = second compound 1 µM, first compound 0.949 µM
[18] = second compound 1 µM, first compound 3 µM
[19] = second compound 3.16 µM, first compound 0.00949 µM
[20] = second compound 3.16 µM, first compound 0.03 µM
[21] = second compound 3.16 µM, first compound 0.0949 µM
[22] = second compound 3.16 µM, first compound 0.3 µM
[23] = second compound 3.16 µM, first compound 0.949 µM
[24] = second compound 3.16 µM, first compound 3 µM
[25] = second compound 10 µM, first compound 0.00949 µM
[26] = second compound 10 µM, first compound 0.03 µM
[27] = second compound 10 µM, first compound 0.0949 µM
[28] = second compound 10 µM, first compound 0.3 µM
[29] = second compound 10 µM, first compound 0.949 µM
[30] = second compound 10 µM, first compound 3 µM
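Also: exposure lasted seven days after three days of spheroid growth.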
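For viability, T/C in this document: 100% = DMSO vehicle control luminescence.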

SMILES: Nc1ccccc1NC(=O)c1ccc(CNC(=O)OCc2cccnc2)cc1 + NC1CC1c1ccc(-c2cccc(O)c2)cc1
- IC50 (second compound 0.1 µM): 190 nM
- IC50 (second compound 0.316 µM): 181 nM
- IC50 (second compound 1 µM): 176 nM
- IC50 (second compound 3.16 µM): 146 nM
- IC50 (second compound 10 µM): 103 nM
- viability, T/C [1]: 103%
- viability, T/C [2]: 106%
- viability, T/C [3]: 64.8%
- viability, T/C [4]: 36.2%
- viability, T/C [5]: 19.2%
- viability, T/C [6]: 0.5%
- viability, T/C [7]: 110%
- viability, T/C [8]: 96%
- viability, T/C [9]: 64.8%
- viability, T/C [10]: 36.9%
- viability, T/C [11]: 15.8%
- viability, T/C [12]: 0.25%
- viability, T/C [13]: 116%
- viability, T/C [14]: 96.6%
- viability, T/C [15]: 62.7%
- viability, T/C [16]: 39.1%
- viability, T/C [17]: 12.6%
- viability, T/C [18]: 0.26%
- viability, T/C [19]: 115%
- viability, T/C [20]: 91.2%
- viability, T/C [21]: 57.3%
- viability, T/C [22]: 35.6%
- viability, T/C [23]: 11.9%
- viability, T/C [24]: 0.25%
- viability, T/C [25]: 91.5%
- viability, T/C [26]: 80.7%
- viability, T/C [27]: 43.5%
- viability, T/C [28]: 33.9%
- viability, T/C [29]: 13.6%
- viability, T/C [30]: 0.23%

SMILES: O=C(C=Cc1cccc(S(=O)(=O)Nc2ccccc2)c1)NO + NC1CC1c1ccc(-c2cccc(O)c2)cc1
- IC50 (second compound 0.1 µM): 89.8 nM
- IC50 (second compound 0.316 µM): 89.8 nM
- IC50 (second compound 1 µM): 69.8 nM
- IC50 (second compound 3.16 µM): 59.8 nM
- IC50 (second compound 10 µM): 36.7 nM
- viability, T/C [1]: 105%
- viability, T/C [2]: 76.1%
- viability, T/C [3]: 44.8%
- viability, T/C [4]: 30.9%
- viability, T/C [5]: 12.9%
- viability, T/C [6]: 0.56%
- viability, T/C [7]: 116%
- viability, T/C [8]: 83.8%
- viability, T/C [9]: 42.7%
- viability, T/C [10]: 28.7%
- viability, T/C [11]: 12%
- viability, T/C [12]: 0.43%
- viability, T/C [13]: 106%
- viability, T/C [14]: 72.3%
- viability, T/C [15]: 38.5%
- viability, T/C [16]: 25.8%
- viability, T/C [17]: 11.9%
- viability, T/C [18]: 0.47%
- viability, T/C [19]: 105%
- viability, T/C [20]: 67.7%
- viability, T/C [21]: 35.5%
- viability, T/C [22]: 23.5%
- viability, T/C [23]: 10.8%
- viability, T/C [24]: 0.43%
- viability, T/C [25]: 79.6%
- viability, T/C [26]: 53.2%
- viability, T/C [27]: 30.7%
- viability, T/C [28]: 23.4%
- viability, T/C [29]: 11.6%
- viability, T/C [30]: 0.29%

SMILES: O=C(c1cc(Cc2n[nH]c(=O)c3ccccc23)ccc1F)N1CCN(C(=O)C2CC2)CC1 + NC1CC1c1ccc(-c2cccc(O)c2)cc1
- IC50 (second compound 0.1 µM): 855 nM
- IC50 (second compound 0.316 µM): 784 nM
- IC50 (second compound 1 µM): 1070 nM
- IC50 (second compound 3.16 µM): 526 nM
- IC50 (second compound 10 µM): 160 nM
- viability, T/C (second compound 0.1 µM, first compound 0.0316 µM): 94.1%
- viability, T/C (second compound 0.1 µM, first compound 0.1 µM): 86.6%
- viability, T/C (second compound 0.1 µM, first compound 0.316 µM): 72.5%
- viability, T/C (second compound 0.1 µM, first compound 1 µM): 45.8%
- viability, T/C (second compound 0.1 µM, first compound 3.16 µM): 37.5%
- viability, T/C (second compound 0.1 µM, first compound 10 µM): 36.4%
- viability, T/C (second compound 0.316 µM, first compound 0.0316 µM): 96%
- viability, T/C (second compound 0.316 µM, first compound 0.1 µM): 87.7%
- viability, T/C (second compound 0.316 µM, first compound 0.316 µM): 65.5%
- viability, T/C (second compound 0.316 µM, first compound 1 µM): 46.5%
- viability, T/C (second compound 0.316 µM, first compound 3.16 µM): 34.9%
- viability, T/C (second compound 0.316 µM, first compound 10 µM): 31.9%
- viability, T/C (second compound 1 µM, first compound 0.0316 µM): 91.3%
- viability, T/C (second compound 1 µM, first compound 0.1 µM): 71.8%
- viability, T/C (second compound 1 µM, first compound 0.316 µM): 60.8%
- viability, T/C (second compound 1 µM, first compound 1 µM): 59.5%
- viability, T/C (second compound 1 µM, first compound 3.16 µM): 33.5%
- viability, T/C (second compound 1 µM, first compound 10 µM): 26.9%
- viability, T/C (second compound 3.16 µM, first compound 0.0316 µM): 93.3%
- viability, T/C (second compound 3.16 µM, first compound 0.1 µM): 84.1%
- viability, T/C (second compound 3.16 µM, first compound 0.316 µM): 53.7%
- viability, T/C (second compound 3.16 µM, first compound 1 µM): 42.1%
- viability, T/C (second compound 3.16 µM, first compound 3.16 µM): 35.9%
- viability, T/C (second compound 3.16 µM, first compound 10 µM): 25.5%
- viability, T/C (second compound 10 µM, first compound 0.0316 µM): 58%
- viability, T/C (second compound 10 µM, first compound 0.1 µM): 53.4%
- viability, T/C (second compound 10 µM, first compound 0.316 µM): 47.1%
- viability, T/C (second compound 10 µM, first compound 1 µM): 38%
- viability, T/C (second compound 10 µM, first compound 3.16 µM): 31.1%
- viability, T/C (second compound 10 µM, first compound 10 µM): 26.5%
